Measurements from the NIST ThermoML archive (doi:10.1016/j.fluid.2018.01.017).
Numbers after ± are expanded uncertainties.

What was measured:
[1] = refractive index (Na D-line) (dimensionless); xn = mol fraction of the nth substance listed; conditions: 298.15 K, 86.6 kPa, Liquid, Standard Abbe refractometry
[2] = xn = mol fraction of the nth substance listed; conditions: 298.15 K, 86.6 kPa, Liquid; for speed of sound: Anton Parr, DSA 5000 densimeter and speed of sound analyzer; for mass density: Vibrating tube method

Row | refractive index ([1]; x2 = 0.5) | speed of sound ([2]; x2 = 0.5) [m/s] | mass density ([2]; x2 = 0.5) [kg/m3] | refractive index ([1]; x2 = 0.333) | speed of sound ([2]; x2 = 0.333) [m/s] | mass density ([2]; x2 = 0.333) [kg/m3] | SMILES
1 | 1.4887 ± 0.0005 | 1962.7 ± 1.7 | 1251.47 ± 0.54 |  |  |  | O=C(O)CC(=O)O [propanedioic acid] + C[N+](C)(C)CCO.[Cl-]
2 | 1.4809 ± 0.0005 | 1925 ± 1.7 | 1210.93 ± 0.5 |  |  |  | O=C(O)C(=O)O [ethanedioic acid] + C[N+](C)(C)CCO.[Cl-]
3 |  |  |  | 1.5041 ± 0.0006 | 2062.3 ± 2.2 | 1193.93 ± 0.94 | NC(N)=O [urea] + C[N+](C)(C)CCO.[Cl-]
